Counter-ions that a name gives are not always drawn.
Tests used:
[1] = tested on: spontaneously hypertensive rat; experiment: Telemetric monitoring of blood pressure and heart rate in spontaneously hypertensive rats, compounds given via the drinking water; format: in vivo; conditions: SHR; for DBP, change vs. baseline / HR, change vs. baseline / SBP, change vs. baseline: mean, n=5
Source text: Male spontaneously hypertensive rats (=SHR, insulin resistant strain from Charles River; aged 6 months) were equipped with telemetry transmitters for continuous monitoring of blood pressure and heart rate (as described below). After 3 days of monitoring under baseline (untreated) conditions, animals were divided into two groups receiving an AT1-receptor antagonist (eprosartan mesylate, hereinafter referred to as experiment I; or candesartan cilexetil, hereinafter referred to as experiment II) or an AT1-receptor antagonist plus daglutril in combination. In experiment II, a third group of rats was included, receiving only daglutril. Compounds were administered via the drinking water, and daily drug intake was measured by weighing the water bottles thrice weekly. Intended daily doses in experiment I were 60 mg/kg/day of eprosartan mesylate plus, in the combination group, 100 mg/kg/day of daglutril. In experiment II, intended daily doses were 1 mg/kg of candesartan cilexetil, and 100 mg/kg of daglutril in the daglutril only and the combination group. Telemetry transmitters for continuous monitoring of blood pressure, heart rate and locomotor activity (TA11PA-C40, Data Sciences, USA) were implanted intraabdominally under inhalative halothane anesthesia. A midline abdominal incision was made, and the abdominal aorta was visualized by removal of retroperitoneal fat and connective tissue. A ligature was placed caudal of the renal arteries, the aorta was punctured with a 22G needle, and the catheter was advanced into the aorta. The entry point was sealed with tissue adhesive (Vetbond®, 3M, USA), the ligature was removed, and the abdominal incision was closed. Measurements of aortic pressure were taken every 5 minutes (=min) for 4 seconds (=s) each at a sampling rate of 500 Hz, and were corrected for the corresponding ambient pressure (ambient pressure monitor, C11 PR, Data Sciences, USA).
Concentrations of AT1-receptor antagonists and daglutril in the drinking water were adjusted once per week, in order to ensure the intended daily intake. In experiment I, the average daily water intake throughout the 33 days treatment period amounted to 51 and 56 ml/kg in the eprosartan and eprosartan plus daglutril group, respectively, resulting in the uptake of 62 mg/kg/day of eprosartan in both groups, and 104 mg/kg/day of daglutril in the combination group. In experiment II, the average daily water intake during the 25 days treatment period was 64 ml/kg (candesartan only), 62 ml/kg (daglutril only) and 62 ml/kg (candesartan plus daglutril), resulting in daily doses of 0.9 mg/kg of candesartan in both, the candesartan and combination group, and 101 mg/kg and 98 mg/kg of daglutril in the daglutril and combination group, respectively.
The blood pressure, heart rate and activity values, sampled in 5 min intervals by the Dataquest system, were used for calculation of individual 24 hours (=h)-means. These 24 h means were exported to Excel, and group mean values of systolic blood pressure (=SBP), diastolic blood pressure (=DBP), heart rate (=HR), and locomotor activity (=ACT) were calculated for the different treatment groups. For the statistical analysis, a baseline value (pre) was calculated from 3 days prior to compound application, and effects of AT1-receptor antagonist, daglutril and their combination were calculated in relation to this baseline value (average value during the treatment period minus baseline value). The statistical comparison was done by using analysis of variance, followed by two-tailed Student's t-test for comparison of AT1 receptor antagonist and combination groups, both at an error level of P<0.05.

[2] = tested on: human subjects with congestive heart failure; experiment: Single dose study of oral daglutril during 12-hour right heart catheterization, subgroup analysis by concomitant losartan potassium; format: in vivo; conditions: human CHF subjects, single oral dose of daglutril (200, 400 or 800 mg groups pooled), with or without concomitant losartan potassium; value is mean change (SE)
Protocol: A randomized, placebo-controlled, parallel group, multi-center, single dose study of oral daglutril (vide supra) during 12-hour right heart catheterization in human subjects with congestive heart failure (=CHF) was performed. Each subject received one dose of daglutril or placebo. The study consisted of three visits (or study days when in-subjects were included). Ambulatory subjects were in hospital for two nights and one day. […]
The primary efficacy parameter was the maximum decrease from baseline over 6 hours for SVR and was compared between treatment groups using analysis of covariance, with the baseline value as covariate and center and NYHA classification as factors. […] In addition, the existence of a dose-response relationship for daglutril was evaluated by investigating linear, quadratic and cubic contrasts. The secondary efficacy parameter was the maximum change from baseline for PCWP and was analyzed in the same way as the primary variable. The maximum decrease from baseline over 12 hours, the change from for each individual time point and the adjusted area under the curve (=AUC) over 6 and 12 hours were analyzed for SVR and PCWP, using similar statistical methodology as for the main parameter of interest. All other tertiary efficacy parameters were analyzed using the same statistical methodology as for the primary efficacy parameter. […]

[3] = experiment I, 33 days via drinking water, eprosartan 62 mg/kg/day, daglutril 104 mg/kg/day in combination
[4] = experiment II, 25 days via drinking water, candesartan 0.9 mg/kg/day, daglutril 101 mg/kg (alone) or 98 mg/kg (combination)

CCCCc1ncc(/C=C(\Cc2cccs2)C(=O)O)n1Cc1ccc(C(=O)O)cc1 [Eprosartan, eprosartan mesylate]
DBP, change vs. baseline [1, 3]: −5.6 mmHg
HR, change vs. baseline [1, 3]: -7.6 min⁻¹
SBP, change vs. baseline [1, 3]: −5.9 mmHg

CCOc1nc2cccc(C(=O)OC(C)OC(=O)OC3CCCCC3)c2n1Cc1ccc(-c2ccccc2-c2nn[nH]n2)cc1 (centres unmarked) [Candesartan, candesartan cilexetil]
DBP, change vs. baseline [1, 4]: −19.7 mmHg
HR, change vs. baseline [1, 4]: -3.0 min⁻¹
SBP, change vs. baseline [1, 4]: −22.8 mmHg

CCOC(=O)C(CCc1ccccc1)CC1(C(=O)NC2CCc3ccccc3N(CC(=O)O)C2=O)CCCC1 (centres unmarked) [daglutril, 2-[1-(1-carboxymethyl-2-oxo-2,3,4,5-tetrahydro-1H-benzo[b]azepin-3-ylcarbamoyl)-cyclopentylmethyl]-4-phenyl-butyric acid ethyl ester]
reduction in blood pressure (in words) ([1]; daglutril given alone): did not lead to a reduction in blood pressure
DBP, change vs. baseline [1, 4]: 0.8 mmHg
HR, change vs. baseline [1, 4]: -2.0 min⁻¹
SBP, change vs. baseline [1, 4]: −1.5 mmHg
Placebo corrected mean change of MPAP (average 0.5-6 hrs) [2]: −3.35 (1.06) mmHg
